What was measured:
[1] = biological target: ABL1 Y253F (Homo sapiens, UniProt P00519, Y253F); assay: SelectScreen kinase profiling, ZLYTE; format: biochemical
[2] = biological target: ALK T1151_L1152insT (Homo sapiens, UniProt Q9UM73, INS1151T); assay: SelectScreen kinase profiling, LanthaScreen binding
[3] = biological target: AMPK (A1/B1/G3) (Homo sapiens, UniProt Q13131); assay: as above
[4] = biological target: CAMK2G (CaMKII gamma) (Homo sapiens, UniProt Q13555); assay: as above
[5] = biological target: CAMKK1 (CAMKKA) (Homo sapiens, UniProt Q8N5S9); assay: as above
[6] = biological target: CDK5/p35 (Homo sapiens, UniProt Q00535); assay: SelectScreen kinase profiling, ZLYTE; format: biochemical; conditions: CDK5/p35, 10 µM
[7] = biological target: CDK8/cyclin C (Homo sapiens, UniProt P49336); assay: SelectScreen kinase profiling, LanthaScreen binding
[8] = biological target: CSNK1E (CK1 epsilon) (Homo sapiens, UniProt P49674); assay: SelectScreen kinase profiling, ZLYTE; format: biochemical
From the text: (§1) Kinase Technology % Inhibition Avg Kinase Technology % Inhibition Avg
(§2) STK23 (MSSK1) ZLYTE 59 TGFBR1 (ALK5) LanthaScreen 85
(§3) STK24 (MST3) ZLYTE 85 TGFBR2 LanthaScreen 77
(§4) STK25 (YSK1) ZLYTE 45 TLK1 LanthaScreen 4
(§5) STK3 (MST2) ZLYTE 77 TLK2 LanthaScreen 33
(§6) STK32B (YANK2) LanthaScreen 61 TNIK LanthaScreen 15
(§7) STK32C (YANK3) LanthaScreen 62 TNK1 ZLYTE 94
(§8) STK33 LanthaScreen 81 TNK2 (ACK) LanthaScreen 71
(§9) STK38 (NDR) LanthaScreen 85 TTK LanthaScreen 54
(§10) STK38L (NDR2) LanthaScreen 59 TXK ZLYTE 94
(§11) STK39 (STLK3) LanthaScreen 38 TYK2 ZLYTE 99
(§12) STK4 (MST1) ZLYTE 93 TYRO3 (RSE) ZLYTE 92
(§13) SYK ZLYTE 98 ULK1 LanthaScreen 80
(§14) TAOK1 LanthaScreen 82 ULK2 LanthaScreen 56
(§15) TAOK2 (TAO1) ZLYTE 87 ULK3 LanthaScreen 5
(§16) TAOK3 (JIK) LanthaScreen 25 VRK2 LanthaScreen 32
(§17) TBK1 ZLYTE 99 WEE1 LanthaScreen 75
(§18) TEC LanthaScreen -9 WNK1 LanthaScreen 2
(§19) TEK (Tie2) ZLYTE 99 WNK2 LanthaScreen 1
(§20) TEK (TIE2) R849W LanthaScreen -5 WNK3 LanthaScreen 7
(§21) TEK (TIE2) Y897S ZLYTE 80 ZAK LanthaScreen 77
(§22) TESK1 LanthaScreen 37 ZAP70 ZLYTE 24
(§23) cleavage (Thermo Fisher Scientific, USA)

[9] = biological target: DYRK4 (Homo sapiens, UniProt Q9NR20); assay: SelectScreen kinase profiling, ZLYTE; format: biochemical; conditions: DYRK4, 10 µM
From the text: as §1, §2, §3, §4, §5, §6, §7, §8, §9, §10, §11, §12, §13, §14, §15, §16, §17, §18, §19, §20, §21, §22, §23

[10] = biological target: GRK5 (Homo sapiens, UniProt P34947); assay: SelectScreen kinase profiling, ZLYTE; format: biochemical; conditions: GRK5, 10 µM
From the text: as §1, §2, §3, §4, §5, §6, §7, §8, §9, §10, §11, §12, §13, §14, §15, §16, §17, §18, §19, §20, §21, §22, §23

[11] = biological target: KSR2 (Homo sapiens, UniProt Q6VAB6); assay: SelectScreen kinase profiling, ZLYTE; format: biochemical; conditions: KSR2, 10 µM
From the text: as §1, §2, §3, §4, §5, §6, §7, §8, §9, §10, §11, §12, §13, §14, §15, §16, §17, §18, §19, §20, §21, §22, §23

[12] = biological target: MAPKAPK3 (Homo sapiens, UniProt Q16644); assay: SelectScreen kinase profiling, ZLYTE; format: biochemical; conditions: MAPKAPK3, 10 µM
From the text: as §1, §2, §3, §4, §5, §6, §7, §8, §9, §10, §11, §12, §13, §14, §15, §16, §17, §18, §19, §20, §21, §22, §23

[13] = biological target: PDGFRA T674I (Homo sapiens, UniProt P16234, T674I); assay: SelectScreen kinase profiling, ZLYTE; format: biochemical
From the text: as §1, §2, §3, §4, §5, §6, §7, §8, §9, §10, §11, §12, §13, §14, §15, §16, §17, §18, §19, §20, §21, §22, §23

[14] = biological target: PTK2 (FAK) (Homo sapiens, UniProt Q05397); assay: SelectScreen kinase profiling, ZLYTE; format: biochemical
From the text: as §1, §2, §3, §4, §5, §6, §7, §8, §9, §10, §11, §12, §13, §14, §15, §16, §17, §18, §19, §20, §21, §22, §23

[15] = biological target: PTK6 (Brk) (Homo sapiens, UniProt Q13882); assay: SelectScreen kinase profiling, ZLYTE; format: biochemical
From the text: as §1, §2, §3, §4, §5, §6, §7, §8, §9, §10, §11, §12, §13, §14, §15, §16, §17, §18, §19, §20, §21, §22, §23

[16] = biological target: RAF1 (cRAF) Y340D Y341D (Homo sapiens, UniProt P04049, Y340D/Y341D); assay: SelectScreen kinase profiling, ZLYTE; format: biochemical
From the text: as §1, §2, §3, §4, §5, §6, §7, §8, §9, §10, §11, §12, §13, §14, §15, §16, §17, §18, §19, §20, §21, §22, §23

[17] = biological target: RPS6KA3 (RSK2) (Homo sapiens, UniProt P51812); assay: SelectScreen kinase profiling, ZLYTE; format: biochemical
From the text: as §1, §2, §3, §4, §5, §6, §7, §8, §9, §10, §11, §12, §13, §14, §15, §16, §17, §18, §19, §20, §21, §22, §23

[18] = biological target: SRPK1 (Homo sapiens, UniProt Q96SB4); assay: SelectScreen kinase profiling, ZLYTE; format: biochemical; conditions: SRPK1, 10 µM
From the text: as §1, §2, §3, §4, §5, §6, §7, §8, §9, §10, §11, §12, §13, §14, §15, §16, §17, §18, §19, §20, §21, §22, §23

[19] = biological target: STK22D (TSSK1) (Homo sapiens, UniProt Q9BXA7); assay: SelectScreen kinase profiling, ZLYTE; format: biochemical
From the text: as §1, §2, §3, §4, §5, §6, §7, §8, §9, §10, §11, §12, §13, §14, §15, §16, §17, §18, §19, §20, §21, §22, §23

[20] = biological target: DYRK1B (Homo sapiens, UniProt Q9Y463); assay: SelectScreen kinase profiling, ZLYTE; format: biochemical
[21] = biological target: EPHA5 (Homo sapiens, UniProt P54756); assay: SelectScreen kinase profiling, ZLYTE; format: biochemical; conditions: EPHA5, 10 µM
[22] = biological target: GAK (Homo sapiens, UniProt O14976); assay: SelectScreen kinase profiling, LanthaScreen binding
[23] = biological target: IRAK1 (Homo sapiens, UniProt P51617); assay: SelectScreen kinase profiling, Adapta; format: biochemical; conditions: IRAK1, 10 µM
[24] = biological target: ITK (Homo sapiens, UniProt Q08881); assay: SelectScreen kinase profiling, ZLYTE; format: biochemical
[25] = biological target: T1, JAK2 JH1 JH2 V617F (Homo sapiens, UniProt O60674, V617F); assay: SelectScreen kinase profiling, ZLYTE; format: biochemical
T1 construct: JAK2 JH1 JH2 V617F

[26] = biological target: KIT (Homo sapiens, UniProt P10721); assay: SelectScreen kinase profiling, ZLYTE; format: biochemical
[27] = biological target: LIMK1 (Homo sapiens, UniProt P53667); assay: SelectScreen kinase profiling, LanthaScreen binding; conditions: LIMK1, 10 µM
[28] = biological target: MST4 (Homo sapiens, UniProt Q9P289); assay: SelectScreen kinase profiling, ZLYTE; format: biochemical; conditions: MST4, 10 µM
[29] = biological target: NEK1 (Homo sapiens, UniProt Q96PY6); assay: SelectScreen kinase profiling, ZLYTE; format: biochemical; conditions: NEK1, 10 µM
[30] = biological target: NEK8 (Homo sapiens, UniProt Q86SG6); assay: SelectScreen kinase profiling, LanthaScreen binding; conditions: NEK8, 10 µM
[31] = biological target: NUAK2 (Homo sapiens, UniProt Q9H093); assay: as above; conditions: NUAK2, 10 µM
Chain of NUAK2 (Q9H093 whole entry): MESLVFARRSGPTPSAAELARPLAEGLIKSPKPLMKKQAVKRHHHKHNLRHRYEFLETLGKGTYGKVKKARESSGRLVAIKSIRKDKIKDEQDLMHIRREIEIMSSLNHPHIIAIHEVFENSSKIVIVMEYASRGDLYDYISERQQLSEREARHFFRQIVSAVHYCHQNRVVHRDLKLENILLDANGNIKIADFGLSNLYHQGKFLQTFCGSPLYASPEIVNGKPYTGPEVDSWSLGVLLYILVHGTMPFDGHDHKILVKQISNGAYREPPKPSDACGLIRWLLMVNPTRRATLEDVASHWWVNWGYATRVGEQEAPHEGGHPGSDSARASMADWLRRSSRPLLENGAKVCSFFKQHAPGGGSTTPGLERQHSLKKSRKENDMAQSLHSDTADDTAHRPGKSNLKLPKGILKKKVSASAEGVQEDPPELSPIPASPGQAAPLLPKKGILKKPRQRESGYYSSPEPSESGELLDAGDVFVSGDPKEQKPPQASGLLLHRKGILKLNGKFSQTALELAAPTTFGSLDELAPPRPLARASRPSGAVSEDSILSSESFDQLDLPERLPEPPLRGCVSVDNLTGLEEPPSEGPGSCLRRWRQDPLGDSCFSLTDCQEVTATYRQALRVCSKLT

T1 sequence (O60674 532-1132 V617F limits assumed): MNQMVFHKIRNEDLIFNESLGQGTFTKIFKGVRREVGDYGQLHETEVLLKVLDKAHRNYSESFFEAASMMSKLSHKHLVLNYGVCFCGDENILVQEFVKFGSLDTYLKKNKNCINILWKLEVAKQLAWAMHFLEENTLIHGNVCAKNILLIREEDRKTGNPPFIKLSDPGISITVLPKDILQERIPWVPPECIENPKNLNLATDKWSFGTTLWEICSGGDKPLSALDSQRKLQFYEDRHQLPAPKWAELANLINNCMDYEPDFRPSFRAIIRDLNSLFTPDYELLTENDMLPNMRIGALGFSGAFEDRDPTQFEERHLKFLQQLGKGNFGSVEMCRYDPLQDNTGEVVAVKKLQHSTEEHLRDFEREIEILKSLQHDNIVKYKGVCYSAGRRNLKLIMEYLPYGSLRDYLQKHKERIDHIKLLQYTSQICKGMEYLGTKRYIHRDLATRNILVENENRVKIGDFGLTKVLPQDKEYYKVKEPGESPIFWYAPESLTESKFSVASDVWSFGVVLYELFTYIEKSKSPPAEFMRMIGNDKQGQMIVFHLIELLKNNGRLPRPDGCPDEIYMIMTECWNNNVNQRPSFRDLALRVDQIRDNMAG
Chain of NEK1 (Q96PY6 whole entry): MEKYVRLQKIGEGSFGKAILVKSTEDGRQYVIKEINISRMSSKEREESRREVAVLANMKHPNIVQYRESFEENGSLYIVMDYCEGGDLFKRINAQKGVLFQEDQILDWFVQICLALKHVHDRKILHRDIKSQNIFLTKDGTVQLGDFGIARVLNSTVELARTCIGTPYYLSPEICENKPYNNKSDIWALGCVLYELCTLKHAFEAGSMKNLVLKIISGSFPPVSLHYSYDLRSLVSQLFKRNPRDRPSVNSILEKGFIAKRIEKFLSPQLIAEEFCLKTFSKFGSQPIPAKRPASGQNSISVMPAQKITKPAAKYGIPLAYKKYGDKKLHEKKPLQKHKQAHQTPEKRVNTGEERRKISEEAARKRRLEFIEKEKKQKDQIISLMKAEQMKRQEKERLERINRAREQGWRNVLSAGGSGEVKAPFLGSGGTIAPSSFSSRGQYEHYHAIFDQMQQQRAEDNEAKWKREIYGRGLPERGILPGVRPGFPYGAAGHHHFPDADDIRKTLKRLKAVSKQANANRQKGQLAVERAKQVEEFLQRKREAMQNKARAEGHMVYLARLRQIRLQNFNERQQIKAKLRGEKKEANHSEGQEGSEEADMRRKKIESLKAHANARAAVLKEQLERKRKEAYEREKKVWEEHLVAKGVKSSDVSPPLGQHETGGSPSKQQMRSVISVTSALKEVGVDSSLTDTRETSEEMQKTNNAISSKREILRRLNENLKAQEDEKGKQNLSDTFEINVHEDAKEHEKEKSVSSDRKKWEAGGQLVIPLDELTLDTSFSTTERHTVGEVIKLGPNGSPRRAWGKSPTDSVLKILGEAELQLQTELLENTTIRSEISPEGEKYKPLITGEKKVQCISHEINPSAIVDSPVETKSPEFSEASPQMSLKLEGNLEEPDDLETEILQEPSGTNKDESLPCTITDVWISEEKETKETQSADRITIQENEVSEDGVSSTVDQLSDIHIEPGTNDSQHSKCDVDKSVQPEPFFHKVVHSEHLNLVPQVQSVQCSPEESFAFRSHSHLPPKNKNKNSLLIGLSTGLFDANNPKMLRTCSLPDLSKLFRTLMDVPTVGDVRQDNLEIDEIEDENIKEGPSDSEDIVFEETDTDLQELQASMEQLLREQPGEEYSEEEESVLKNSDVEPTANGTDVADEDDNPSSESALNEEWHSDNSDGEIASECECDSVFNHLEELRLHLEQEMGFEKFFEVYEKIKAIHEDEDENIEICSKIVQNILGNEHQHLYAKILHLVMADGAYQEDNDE
Chain of MST4 (Q9P289 whole entry): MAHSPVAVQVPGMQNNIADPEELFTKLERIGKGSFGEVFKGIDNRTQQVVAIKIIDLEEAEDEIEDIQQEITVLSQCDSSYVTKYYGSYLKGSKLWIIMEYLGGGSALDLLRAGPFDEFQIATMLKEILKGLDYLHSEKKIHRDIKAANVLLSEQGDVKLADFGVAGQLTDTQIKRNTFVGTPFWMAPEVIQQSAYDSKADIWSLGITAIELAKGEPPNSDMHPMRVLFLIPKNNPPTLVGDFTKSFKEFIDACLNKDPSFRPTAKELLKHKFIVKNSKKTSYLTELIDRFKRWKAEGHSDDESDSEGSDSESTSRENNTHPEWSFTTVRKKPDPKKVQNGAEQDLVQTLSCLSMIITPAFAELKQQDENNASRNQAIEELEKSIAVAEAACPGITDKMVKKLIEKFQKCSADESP
Chain of NEK8 (Q86SG6 whole entry): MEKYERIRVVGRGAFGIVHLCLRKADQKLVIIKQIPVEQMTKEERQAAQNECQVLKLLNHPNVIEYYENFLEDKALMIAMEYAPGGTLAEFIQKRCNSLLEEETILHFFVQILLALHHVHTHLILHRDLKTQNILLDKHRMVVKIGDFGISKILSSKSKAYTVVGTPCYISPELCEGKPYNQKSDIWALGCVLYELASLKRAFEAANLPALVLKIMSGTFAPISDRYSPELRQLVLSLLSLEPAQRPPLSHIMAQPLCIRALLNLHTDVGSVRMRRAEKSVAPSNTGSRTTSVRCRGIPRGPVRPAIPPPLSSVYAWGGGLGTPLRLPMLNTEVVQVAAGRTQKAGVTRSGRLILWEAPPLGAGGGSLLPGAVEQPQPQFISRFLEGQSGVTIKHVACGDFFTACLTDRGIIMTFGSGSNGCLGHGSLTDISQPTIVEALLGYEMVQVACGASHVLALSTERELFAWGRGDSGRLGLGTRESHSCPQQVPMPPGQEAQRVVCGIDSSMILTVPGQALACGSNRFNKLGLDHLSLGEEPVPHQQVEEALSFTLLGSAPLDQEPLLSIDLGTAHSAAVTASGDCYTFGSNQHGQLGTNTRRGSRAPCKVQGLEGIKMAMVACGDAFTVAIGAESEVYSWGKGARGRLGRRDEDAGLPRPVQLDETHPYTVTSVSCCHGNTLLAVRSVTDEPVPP
Chain of DYRK1B (Q9Y463 whole entry): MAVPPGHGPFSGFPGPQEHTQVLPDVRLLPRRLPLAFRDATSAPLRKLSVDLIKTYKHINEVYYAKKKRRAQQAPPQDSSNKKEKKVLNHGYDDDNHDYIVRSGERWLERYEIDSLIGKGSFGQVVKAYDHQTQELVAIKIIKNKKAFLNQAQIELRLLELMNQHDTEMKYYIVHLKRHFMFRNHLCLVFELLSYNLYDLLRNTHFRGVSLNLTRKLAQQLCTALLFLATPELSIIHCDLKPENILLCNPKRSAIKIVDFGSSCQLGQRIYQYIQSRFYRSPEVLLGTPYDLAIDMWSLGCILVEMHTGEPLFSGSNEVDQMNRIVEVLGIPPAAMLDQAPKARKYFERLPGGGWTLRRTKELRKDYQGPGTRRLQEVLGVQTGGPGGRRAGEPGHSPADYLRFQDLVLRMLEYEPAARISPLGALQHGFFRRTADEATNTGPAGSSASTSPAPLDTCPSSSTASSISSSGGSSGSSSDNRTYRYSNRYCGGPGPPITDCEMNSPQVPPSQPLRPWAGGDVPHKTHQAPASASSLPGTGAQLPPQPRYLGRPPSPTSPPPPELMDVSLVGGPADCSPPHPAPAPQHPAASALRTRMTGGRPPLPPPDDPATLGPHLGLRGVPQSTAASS
Chain of CDK5/p35 (Q00535 whole entry): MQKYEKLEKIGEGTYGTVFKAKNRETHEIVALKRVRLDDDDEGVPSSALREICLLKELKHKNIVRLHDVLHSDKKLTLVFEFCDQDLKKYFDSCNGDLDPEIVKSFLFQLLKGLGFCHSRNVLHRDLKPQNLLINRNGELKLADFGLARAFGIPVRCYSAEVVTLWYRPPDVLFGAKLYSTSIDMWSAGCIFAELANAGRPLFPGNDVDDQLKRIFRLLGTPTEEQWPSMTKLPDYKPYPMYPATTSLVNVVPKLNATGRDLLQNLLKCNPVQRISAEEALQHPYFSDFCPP
Chain of CDK5/p35 (Q15078 whole entry partner): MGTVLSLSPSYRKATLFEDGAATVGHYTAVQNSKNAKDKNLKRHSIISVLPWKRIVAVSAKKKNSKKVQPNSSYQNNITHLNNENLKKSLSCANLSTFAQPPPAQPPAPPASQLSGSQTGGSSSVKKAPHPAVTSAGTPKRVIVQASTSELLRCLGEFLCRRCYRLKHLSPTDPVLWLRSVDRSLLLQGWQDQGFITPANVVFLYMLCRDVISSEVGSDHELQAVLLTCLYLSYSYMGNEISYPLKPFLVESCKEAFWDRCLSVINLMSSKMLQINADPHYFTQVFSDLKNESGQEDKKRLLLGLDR

Work on `O=C(c1ccc(/C=C/c2n[nH]c3ccccc23)cc1)N1CCNCC1` [KW-2449] yielded an inhibition at 10 µM [1] of 100%, an inhibition at 10 µM [2] of 26% and an inhibition at 10 µM [3] of 71%. For the same compound, the inhibition at 10 µM [4] was -110%, the inhibition at 10 µM [5] was 69% and the inhibition at 10 µM [6] was 94%. It also gave an inhibition at 10 µM [7] of 38%, an inhibition at 10 µM [8] of 67% and an inhibition at 10 µM [9] of 16%. It also gave an inhibition at 10 µM [10] of 17%, an inhibition at 10 µM [11] of 5% and an inhibition at 10 µM [12] of 4%. The inhibition at 10 µM [13] was 97%, the inhibition at 10 µM [14] was 95% and the inhibition at 10 µM [15] was 71%. It also gave an inhibition at 10 µM [16] of 74%, an inhibition at 10 µM [17] of 95% and an inhibition at 10 µM [18] of 31%. For the same compound, the inhibition at 10 µM [19] was 99%, the inhibition at 10 µM [20] was 91% and the inhibition at 10 µM [21] was 84%. The inhibition at 10 µM [22] was 67%, the inhibition at 10 µM [23] was 99% and the inhibition at 10 µM [24] was 99%. The inhibition at 10 µM [25] was 94%, the inhibition at 10 µM [26] was 91% and the inhibition at 10 µM [27] was 32%. The inhibition at 10 µM [28] was 92%, the inhibition at 10 µM [29] was 67% and the inhibition at 10 µM [30] was 30%. For the same compound, the inhibition at 10 µM [31] was 62%.
